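1) Cells in 96-well plates. 2) Compound, 48 h, 5 concentrations. 3) Linear interpolation between surrounding doses. 4) Unreached endpoint = highest concentration. TGI: concentration producing complete growth inhibition.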
Key:
Experiment in all cases: NCI anticancer screen, dose series, 48 h
A498 renal = system: A498 renal
A549 NSCLC = system: A549 NSCLC
ACHN renal = system: ACHN renal
DMS 114 small cell lung = system: DMS 114 small cell lung
HCT-15 colon = system: HCT-15 colon
HL-60(TB) leukemia = system: HL-60(TB) leukemia
K-562 leukemia = system: K-562 leukemia
LOX IMVI melanoma = system: LOX IMVI melanoma
M14 melanoma = system: M14 melanoma
NCI-H23 lung = system: NCI-H23 lung
NCI-H460 lung = system: NCI-H460 lung
OVCAR-8 ovarian = system: OVCAR-8 ovarian
RPMI-8226 leukemia = system: RPMI-8226 leukemia
SNB-75 CNS = system: SNB-75 CNS
UACC-62 melanoma = system: UACC-62 melanoma
OVCAR-3 ovarian = system: OVCAR-3 ovarian
OVCAR-5 ovarian = system: OVCAR-5 ovarian
SK-MEL-28 melanoma = system: SK-MEL-28 melanoma
MCF7 breast = system: MCF7 breast
MDA-MB-231 breast = system: MDA-MB-231 breast

Row | Compound | TGI (A498 renal) | TGI (A549 NSCLC) | TGI (ACHN renal) | TGI (DMS 114 small cell lung) | TGI (HCT-15 colon) | TGI (HL-60(TB) leukemia) | TGI (K-562 leukemia) | TGI (LOX IMVI melanoma) | TGI (M14 melanoma) | TGI (NCI-H23 lung) | TGI (NCI-H460 lung) | TGI (OVCAR-8 ovarian) | TGI (RPMI-8226 leukemia) | TGI (SNB-75 CNS) | TGI (UACC-62 melanoma) | TGI (OVCAR-3 ovarian) | TGI (OVCAR-5 ovarian) | TGI (SK-MEL-28 melanoma) | TGI (MCF7 breast) | TGI (MDA-MB-231 breast)
1 | C/C(=N\NS(=O)(=O)c1ccc(C)cc1)c1cc2ccccc2n1C | > 100 µM | > 100 µM | > 100 µM | > 100 µM | > 100 µM | > 100 µM | > 100 µM | > 100 µM | > 100 µM | > 100 µM | > 100 µM | > 100 µM | > 100 µM | > 100 µM | > 100 µM |  |  |  |  | 
2 | COC(=O)C(CC(C)=O)CS(=O)(=O)CC(=O)C(=O)Nc1cccc([N+](=O)[O-])c1 (configuration not stated) | > 100 µM | > 100 µM | > 100 µM | > 100 µM | > 100 µM |  | > 100 µM | > 100 µM | > 100 µM | > 100 µM | > 100 µM | > 100 µM | > 100 µM | > 100 µM | > 100 µM | > 100 µM | > 100 µM | > 100 µM |  | 
3 | Cc1cc2oc(-c3ccccc3)c(C)c(=O)c2c2c1OC(C)(C)S2 |  | > 100 µM | > 100 µM | > 100 µM | > 100 µM | 38.4 µM | > 100 µM | > 100 µM | > 100 µM | > 100 µM | > 100 µM | > 100 µM | > 100 µM | > 100 µM | > 100 µM | > 100 µM | > 100 µM | > 100 µM |  | 
4 | C[C@H](NC(=O)n1c2ccccc2c2ccccc21)C(=O)O |  | > 100 µM | > 100 µM | > 100 µM | > 100 µM | > 100 µM | > 100 µM | > 100 µM |  | > 100 µM | > 100 µM | > 100 µM | > 100 µM |  | > 100 µM | > 100 µM | > 100 µM | > 100 µM |  | 
5 | COC(=O)C1=CC2CC1C(S(=O)(=O)c1ccccc1)C2S(=O)(=O)c1ccccc1 (configuration not stated) | 42.9 µM | 69.3 µM |  | 36 µM | 26.8 µM | 7.29 µM | 32.3 µM | 27.1 µM | 25.5 µM | 36.8 µM | 51.5 µM | 38.5 µM | 29.3 µM |  | 67.9 µM | 21.2 µM | 28.3 µM | 30.4 µM |  | 
6 | Cc1ccc2c(c1)C1(OC(=O)c3ccccc31)c1ccc(F)cc1O2 (configuration not stated) |  | > 100 µM |  | > 100 µM |  | 51 µM | > 100 µM | > 100 µM | > 100 µM |  |  | > 100 µM | 74.1 µM |  | > 100 µM | > 100 µM | > 100 µM |  |  | 
7 | Cc1ccc(S(=O)(=O)N2c3ccccc3[C@H]3CCC=C[C@H]32)cc1 | 46.2 µM | > 100 µM | > 93.3 µM | 15.1 µM | > 69.1 µM | 28.8 µM | > 81.3 µM | 56.5 µM | 43.3 µM | 52.3 µM | > 64.7 µM | > 88.5 µM | 43 µM | 42.5 µM | 42.3 µM | 28.4 µM | > 100 µM | > 96.1 µM | > 100 µM | > 100 µM
8 | c1cnc2c(c1)-n1cccc1C1(CCSC1)NN2 (configuration not stated) |  | > 100 µM | > 100 µM | > 100 µM | > 100 µM | > 100 µM | > 100 µM | > 100 µM | > 100 µM | > 100 µM | > 100 µM | > 100 µM | > 100 µM | > 100 µM |  | > 100 µM | > 100 µM | > 100 µM |  | 
9 | Cc1ccc(NCC(=O)N2CC(=O)Nc3ccccc32)cc1 |  | > 100 µM | > 100 µM | > 100 µM | > 100 µM | > 100 µM | > 100 µM | > 100 µM | > 100 µM | > 100 µM | > 100 µM | > 100 µM | > 100 µM | > 100 µM | > 100 µM | > 100 µM | > 100 µM | > 100 µM |  | 
10 | CCOC(=O)NC(C(=O)OCC)(N1CCN(c2cc3c(cc2F)c(=O)c(C(=O)O)cn3CC)CC1)C(F)(F)F (configuration not stated) | > 100 µM | > 100 µM | > 100 µM |  | > 100 µM | > 100 µM | > 100 µM | > 100 µM | > 100 µM | > 100 µM | > 100 µM | 34 µM | > 100 µM | > 100 µM | > 100 µM | > 100 µM | > 100 µM | 0.533 µM | > 100 µM | > 100 µM
11 | Cc1cc(S(=O)(=O)NC2=NC(c3ccccc3)c3cc(Cl)ccc3N2)c(S)cc1Cl (configuration not stated) | > 100 µM | > 100 µM | > 100 µM |  | > 100 µM | > 100 µM | > 100 µM | > 100 µM | > 100 µM | > 100 µM | > 100 µM | > 100 µM | > 100 µM | > 100 µM | > 100 µM | > 100 µM | > 100 µM | > 100 µM | > 100 µM | > 100 µM
12 | CC(C)COC(=O)OC(=O)c1ccc(N(C)Cc2cnc3nc(N)nc(N)c3n2)cc1 | > 100 µM | > 100 µM | > 79.4 µM |  | > 100 µM | > 100 µM | > 100 µM | > 100 µM | > 100 µM | > 100 µM | > 100 µM | > 100 µM | > 100 µM | > 100 µM | > 100 µM | > 100 µM | > 100 µM | > 100 µM | > 100 µM | > 100 µM
13 | CC1(c2cccc(N)c2)C2C(=O)NC(=O)C1C(=O)NC2=O (configuration not stated) | 99.6 µM | > 100 µM | 78.5 µM | 96.9 µM | > 100 µM | 43.2 µM | 67.3 µM | 81.1 µM | > 100 µM | 48.5 µM | > 100 µM | > 100 µM | 40.3 µM | 73.2 µM | > 100 µM | 57.1 µM | > 100 µM | > 100 µM |  | 
14 | COc1ccc(N2C(=O)c3c(c4[nH]c5ccc(OC)cc5c4c4ccc(C(C)(C)C)cc34)C2=O)cc1 |  | > 100 µM | > 100 µM | > 100 µM | > 100 µM | > 100 µM | > 100 µM |  | > 100 µM | > 100 µM | > 100 µM | > 100 µM | > 100 µM | > 100 µM |  | > 100 µM | > 100 µM | > 100 µM |  | 
15 | CCOC(=O)CSc1nnc(CSc2nc(-c3ccccc3)c(-c3ccccc3)[nH]2)n1-c1ccccc1 | 33.2 µM | > 100 µM | 35.5 µM | 39.8 µM | > 100 µM | 98.8 µM | > 100 µM | > 100 µM | > 62.4 µM | > 100 µM | > 100 µM | 35.3 µM | > 100 µM | > 100 µM | 71.6 µM | > 100 µM | > 100 µM | > 100 µM | > 100 µM | > 100 µM
16 | c1ccc(-c2nnc(SCc3c[nH]c4ccccc34)n2-c2ccccc2)cc1 | 56 µM | > 100 µM | > 100 µM |  | > 100 µM | > 100 µM | > 100 µM | > 100 µM | > 100 µM | > 100 µM | > 100 µM | > 100 µM | > 100 µM | 57.6 µM | 66.7 µM | > 100 µM | > 100 µM | > 100 µM | > 100 µM | > 100 µM
17 | COc1cccc(C2ON=C(c3ccccc3)N2C23CC4CC(CC(C4)C2)C3)c1 (configuration not stated) | > 10 µM | > 10 µM | > 10 µM |  | > 10 µM | > 10 µM | > 10 µM | > 10 µM | > 10 µM | > 10 µM | > 10 µM | > 10 µM | > 10 µM | > 10 µM | > 10 µM | > 10 µM | > 10 µM | > 10 µM | > 10 µM | > 10 µM
18 | CCC12CCCNC1c1c(n(C)c3ccccc13)C(C(=O)OC)C2 (configuration not stated) |  | > 275 µM | 257 µM | 152 µM | > 275 µM | > 275 µM | > 275 µM | > 275 µM |  | 252 µM | > 275 µM | > 275 µM | 199 µM |  | > 275 µM | 91.1 µM | 208 µM | > 275 µM |  | 
19 | c1cc2nnc1SCCCSc1ccc(nn1)SCCCSc1ccc(nn1)SCCCS2 | > 100 µM | > 100 µM | > 100 µM |  | > 100 µM | > 100 µM | > 100 µM | > 100 µM | > 100 µM | > 100 µM | > 100 µM | > 100 µM | > 100 µM | 83.4 µM | > 100 µM | > 100 µM | > 100 µM | > 100 µM | > 100 µM | > 100 µM
20 | Cc1ccc2c(c1)C1C(CO2)C(c2ccccc2)=NN1c1ccccc1 (configuration not stated) | > 100 µM | > 100 µM | > 100 µM | > 100 µM |  | > 100 µM | > 100 µM | > 100 µM |  | > 100 µM | > 100 µM | > 100 µM | > 100 µM | > 100 µM |  | > 100 µM | > 100 µM | > 100 µM |  | 
21 | Cc1cc(C)n2c(-c3ccccc3)c(C)cc2n1 | > 100 µM | > 100 µM | > 100 µM | > 100 µM | > 100 µM | 50.4 µM | > 100 µM | > 100 µM | > 100 µM | > 100 µM | > 100 µM | > 100 µM |  | 59.8 µM | > 100 µM | 83.3 µM | > 100 µM | > 100 µM |  | 
22 | COC(=O)/C=C(/C(=O)OC)c1cc2ccc3c([nH]c4ccccc43)c(C)c-2c1 | 23.5 µM | > 100 µM | > 100 µM |  | 29 µM | 12.5 µM | 7.09 µM | 14.5 µM | 16 µM | 24.7 µM | 18.6 µM | 25.2 µM | 25.2 µM | 59.2 µM | 17.8 µM | 12 µM | 13.6 µM | 30.2 µM | 13.3 µM | 15.1 µM
